Measurements published in patent US20070225171A1 (priority 2001, published 2007).
Read-outs that look alike come from different tables or passages of the source.

Legend:
[1] = test system: Plants expressing the dioxygenase encoded by the tfdA gene; assay: Herbicide tolerance of plants expressing the tfdA dioxygenase; format: in vivo; conditions: at lower levels of herbicide than for 2,4-D; data not shown
From the text: See, e.g., Llewellyn and Last, in Herbicide-Resistant Crops Chapter 10, pages 159-174 (Duke, ed., CRC Lewis Publishers 1996). Preferably, additional bacterial codons of the tfdA coding sequence are replaced by plant-preferred codons to obtain better expression of the encoded dioxygenase. […] See, e.g., Llewellyn and Last, in Herbicide-Resistant Crops Chapter 10, pages 159-174 (Duke, ed., CRC Lewis Publishers 1996) and U.S. Pat. Nos. 6,100,446 and 6,153,401.

[2] = test system: Transgenic cotton plants (transformed with tfdA gene); assay: Seed cotton yield after spraying 2,4-D amine on transgenic cotton; format: in vivo; conditions: for SEED COTTON YIELD: herbicide rate 1 lb/acre, average of 4 replications
Protocol: Transgenic cotton plants (transformed as described in Bayley et al., Theor. Appl. Genet., 83:645-649 (1992)) were grown from transgenic seed obtained from USDA, Lubbock, Tex. The cotton plants were sprayed with 2,4-D amine at 1 lb of active ingredient per acre.

[3] = test system: Plants expressing the dioxygenase encoded by the tfdA gene; conditions: reported in Llewellyn and Last 1996 and U.S. Pat. Nos. 6,100,446 and 6,153,401; cited from earlier work

With `O=C(O)CCCOc1ccc(Cl)cc1Cl` [2,4-DB, 2,4-dichlorophenoxybutyric acid] the “tolerance of plants to the herbicide” value [1] was “tolerant”.

For `CNC.O=C(O)COc1ccc(Cl)cc1Cl` [2,4-D amine], the “effect on yield of cotton” value ([2]; 1 lb of active ingredient per acre) was “significantly increased the yield of cotton”, the “PERCENT INCREASE, AVERAGE” value ([2]; average of the seven cotton lines, 1 lb/acre vs rate 0) was 13.0 and the “PERCENT INCREASE” value ([2]; cotton line X-2600, 1 lb/acre vs rate 0) was 8.0. For the same compound, the “SEED COTTON YIELD” value ([2]; cotton line X-2600) was 2145 Pounds/acre, the “PERCENT INCREASE” value ([2]; cotton line X-2603, 1 lb/acre vs rate 0) was 7.4 and the “SEED COTTON YIELD” value ([2]; cotton line X-2603) was 2790 Pounds/acre. The “PERCENT INCREASE” value ([2]; cotton line X-2606, 1 lb/acre vs rate 0) was 19.5, the “SEED COTTON YIELD” value ([2]; cotton line X-2606) was 3067 Pounds/acre and the “PERCENT INCREASE” value ([2]; cotton line X-2609, 1 lb/acre vs rate 0) was −1.1. The “SEED COTTON YIELD” value ([2]; cotton line X-2609) was 2301 Pounds/acre, the “PERCENT INCREASE” value ([2]; cotton line X-2614, 1 lb/acre vs rate 0) was 33.6 and the “SEED COTTON YIELD” value ([2]; cotton line X-2614) was 2660 Pounds/acre. The “PERCENT INCREASE” value ([2]; cotton line X-2615, 1 lb/acre vs rate 0) was 15.3, the “SEED COTTON YIELD” value ([2]; cotton line X-2615) was 2380 Pounds/acre and the “PERCENT INCREASE” value ([2]; cotton line X-2619, 1 lb/acre vs rate 0) was 8.7. The “SEED COTTON YIELD” value ([2]; cotton line X-2619) was 2235 Pounds/acre.

With `Cc1cc(Cl)ccc1OCC(=O)O` [MCPA, 2-methyl-4-chlorophenoxyacetic acid] the “tolerance of plants to the herbicide” value [1] was “tolerant”.

In the case of `O=C(O)COc1cc(Cl)c(Cl)cc1Cl` [2,4,5-T, 2,4,5-trichlorophenoxyacetic acid], the “tolerance of plants to the herbicide” value [3] is listed as “not to be tolerant”.

For `O=C(O)COc1ccc(Cl)cc1` [4-CPA, 4-chlorophenoxyacetic acid], the “tolerance of plants to the herbicide” value [3] is given as “tolerant”.
